Literature values as cited in patent US20210316006A1, “PYRROLOBENZODIAZEPINE CONJUGATES” (priority 2018, published 2021).

Columns and labels:
[1] = quoted from Mantaj et al. 2016
[2] = in vitro; quoted from Gregson et al. 1999

## COc1cc2c(cc1OCCCOc1cc3c(cc1OC)C(=O)N1CCC[C@H]1C=N3)N=C[C@@H]1CCCN1C2=O [DSB-120]
[1]
  activity in vivo: poor activity in vivo

## C=C1C[C@H]2C=Nc3cc(OCCCOc4cc5c(cc4OC)C(=O)N4CC(=C)C[C@H]4C=N5)c(OC)cc3C(=O)N2C1 [SG2000]
[2]
  cytotoxic potency relative to DSB-120: ~9000 fold
